# Values joined by “and” are separate entries in the source; they are usually repeats but may differ in a detail not shown here. Equal entries are not always repeated. Toxic doses and inconclusive results are not listed.
# System: P388 leukemia ip, CD2F1 mice, survival T/C
# Test: NCI In Vivo Anticancer Drug Screen. Data for tumor model P388 Leukemia (intraperitoneal) in CD2F1 (CDF1) mice
# Settings: endpoint: median survival time, higher = longer survival
# Procedure, shortened: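 Mice carrying the transplanted tumor received test compound or vehicle. Survival was recorded in each group, and the value is the treated-group measurement divided by that of the vehicle-treated control group.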
# [1] = dose: 50.0 mg/kg/injection, schedule: Q01DX005 (ip), vehicle: Klucel (hydroxypropylcellulose) (HPC)
# [2] = dose: 100.0 mg/kg/injection, schedule: Q01DX005 (ip), vehicle: Klucel (hydroxypropylcellulose) (HPC)
# [3] = dose: 50.0 mg/kg/injection, schedule: Q01DX009 (ip), vehicle: Klucel (hydroxypropylcellulose) (HPC)
# [4] = dose: 100.0 mg/kg/injection, schedule: Q01DX009 (ip), vehicle: Klucel (hydroxypropylcellulose) (HPC)
# [5] = dose: 200.0 mg/kg/injection, schedule: Q01DX009 (ip), vehicle: Klucel (hydroxypropylcellulose) (HPC)
# [6] = dose: 50.0 mg/kg/injection, schedule: Q01DX005 (ip), vehicle: saline with Tween-80
# [7] = dose: 100.0 mg/kg/injection, schedule: Q01DX005 (ip), vehicle: saline with Tween-80
# [8] = dose: 200.0 mg/kg/injection, schedule: Q01DX005 (ip), vehicle: saline with Tween-80
# [9] = dose: 6.25 mg/kg/injection, schedule: Q01DX009 (ip), vehicle: saline with Tween-80
# [10] = dose: 25.0 mg/kg/injection, schedule: Q01DX009 (ip), vehicle: saline with Tween-80
# [11] = dose: 50.0 mg/kg/injection, schedule: Q01DX009 (ip), vehicle: saline with Tween-80
# [12] = dose: 100.0 mg/kg/injection, schedule: Q04DX002 (ip), vehicle: saline with Tween-80
# [13] = dose: 200.0 mg/kg/injection, schedule: Q04DX002 (ip), vehicle: saline with Tween-80
# [14] = dose: 400.0 mg/kg/injection, schedule: Q04DX002 (ip), vehicle: saline with Tween-80
structure (smiles),measurement,setting,value
CCOC(=O)/C(=C(/C)N=Cc1ccccc1[N+](=O)[O-])C(NN=O)c1ccccc1[N+](=O)[O-] (configuration not stated),T/C,"dose: 25.0 mg/kg/injection, schedule: Q01DX005 (ip), vehicle: Klucel (hydroxypropylcellulose) (HPC)",97 % of control
same,T/C,[1],93 % of control
same,T/C,[2],88 % of control and 90 % of control
N#CCCN(C(=O)Nc1ccccc1)c1ccccc1,T/C,[3],103 % of control
same,T/C,[4],107 % of control
same,T/C,[5],107 % of control
CCOC(=O)/C=C/c1nc(OCC)c(C)c(C(=O)OCC)n1,T/C,"dose: 12.5 mg/kg/injection, schedule: Q01DX009 (ip), vehicle: other",95 % of control
same,T/C,"dose: 25.0 mg/kg/injection, schedule: Q01DX009 (ip), vehicle: other",102 % of control
same,T/C,"dose: 50.0 mg/kg/injection, schedule: Q01DX009 (ip), vehicle: other",98 % of control
same,T/C,"dose: 100.0 mg/kg/injection, schedule: Q01DX009 (ip), vehicle: other",103 % of control
same,T/C,"dose: 200.0 mg/kg/injection, schedule: Q01DX009 (ip), vehicle: other",90 % of control
O=c1nc(-c2ccco2)sc(=O)[nH]1,T/C,"dose: 25.0 mg/kg/injection, schedule: Q01DX009 (ip), vehicle: Klucel (hydroxypropylcellulose) (HPC)",109 % of control
same,T/C,[3],106 % of control and 117 % of control
same,T/C,[4],113 % of control
same,T/C,[5],105 % of control and 121 % of control
CCN(CC)CCOc1ccc(C(O)(Cc2ccc(OC)cc2)c2ccccc2)cc1 (configuration not stated),T/C,[6],101 % of control
same,T/C,[7],92 % of control
same,T/C,[8],92 % of control
O=[N+]([O-])c1cccn2nc(C3OC(CO)C(O)C3O)nc12 (configuration not stated),T/C,"dose: 6.25 mg/kg/injection, schedule: Q01DX009 (ip), vehicle: water",109 % of control
same,T/C,"dose: 12.5 mg/kg/injection, schedule: Q01DX009 (ip), vehicle: water",104 % of control
same,T/C,"dose: 25.0 mg/kg/injection, schedule: Q01DX009 (ip), vehicle: water",113 % of control
same,T/C,"dose: 50.0 mg/kg/injection, schedule: Q01DX009 (ip), vehicle: water",98 % of control
same,T/C,"dose: 100.0 mg/kg/injection, schedule: Q01DX009 (ip), vehicle: water",109 % of control
[NH2-].[NH2-].[NH2-].[NH2-].[NH2-].[NH2-].[Ni],T/C,"dose: 6.25 mg/kg/injection, schedule: Q01DX001 (ip), vehicle: saline",97 % of control
same,T/C,"dose: 12.5 mg/kg/injection, schedule: Q01DX001 (ip), vehicle: saline",100 % of control
same,T/C,"dose: 25.0 mg/kg/injection, schedule: Q01DX001 (ip), vehicle: saline",98 % of control
O=C(O)c1ccc(N=Cc2ccc3c(c2)OCO3)cc1,T/C,"dose: 25.0 mg/kg/injection, schedule: Q04DX003 (ip), vehicle: saline",100 % of control
same,T/C,"dose: 50.0 mg/kg/injection, schedule: Q04DX003 (ip), vehicle: saline",102 % of control
same,T/C,"dose: 100.0 mg/kg/injection, schedule: Q04DX003 (ip), vehicle: saline",96 % of control
same,T/C,"dose: 200.0 mg/kg/injection, schedule: Q04DX003 (ip), vehicle: saline",94 % of control
Clc1ccc(CN2COc3c(ccc4cccnc34)C2)cc1,T/C,"dose: 50.0 mg/kg/injection, schedule: Q04DX003 (ip), vehicle: Klucel (hydroxypropylcellulose) (HPC)",101 % of control and 115 % of control
same,T/C,"dose: 100.0 mg/kg/injection, schedule: Q04DX003 (ip), vehicle: Klucel (hydroxypropylcellulose) (HPC)",101 % of control and 105 % of control and 97 % of control
same,T/C,"dose: 200.0 mg/kg/injection, schedule: Q04DX003 (ip), vehicle: Klucel (hydroxypropylcellulose) (HPC)",100 % of control and 103 % of control and 123 % of control
same,T/C,"dose: 400.0 mg/kg/injection, schedule: Q04DX003 (ip), vehicle: Klucel (hydroxypropylcellulose) (HPC)",93 % of control
COc1cc2c(c(OC)c1OC)C(=O)/C(=C\c1ccccc1)O2,T/C,"dose: 3.13 mg/kg/injection, schedule: Q01DX009 (ip), vehicle: saline with Tween-80",105 % of control
same,T/C,[9],101 % of control and 102 % of control and 95 % of control
same,T/C,"dose: 12.5 mg/kg/injection, schedule: Q01DX009 (ip), vehicle: saline with Tween-80",100 % of control and 105 % of control and 114 % of control
same,T/C,[10],105 % of control and 121 % of control and 93 % of control
same,T/C,[11],118 % of control and 96 % of control
O=C1OC(c2ccccc2)=N/C1=C\c1ccccc1,T/C,[10],95 % of control
same,T/C,[11],100 % of control
same,T/C,"dose: 100.0 mg/kg/injection, schedule: Q01DX009 (ip), vehicle: saline with Tween-80",100 % of control
same,T/C,"dose: 200.0 mg/kg/injection, schedule: Q01DX009 (ip), vehicle: saline with Tween-80",95 % of control
COc1ccc(C(C)c2cc3c(cc2OCCOC(C)=O)OCO3)cc1 (configuration not stated),T/C,[12],103 % of control
same,T/C,[13],100 % of control
same,T/C,[14],100 % of control
C/C=C(\C)c1cc(=O)c2c(C)cc3c(c2o1)C(=O)c1c(O)c(C2CC(C)(N(C)C)C(O)C(C)O2)cc(C2CC(N(C)C)C(O)C(C)O2)c1C3=O (configuration not stated),T/C,"dose: 0.31 mg/kg/injection, schedule: Q01DX009 (ip), vehicle: saline",100 % of control
same,T/C,"dose: 0.62 mg/kg/injection, schedule: Q01DX009 (ip), vehicle: saline",153 % of control
same,T/C,"dose: 1.25 mg/kg/injection, schedule: Q01DX009 (ip), vehicle: saline",91 % of control
same,T/C,"dose: 2.0 mg/kg/injection, schedule: Q01DX009 (ip), vehicle: Klucel (hydroxypropylcellulose) (HPC)",118 % of control
same,T/C,"dose: 2.0 mg/kg/injection, schedule: Q01DX009 (ip), vehicle: saline",154 % of control
same,T/C,"dose: 3.0 mg/kg/injection, schedule: Q01DX009 (ip), vehicle: saline",109 % of control
same,T/C,"dose: 5.0 mg/kg/injection, schedule: Q01DX009 (ip), vehicle: saline",94 % of control
same,T/C,[9],95 % of control
CCOC(=O)C1CSC2(CCCC2)N1 (configuration not stated),T/C,[12],110 % of control
same,T/C,[13],109 % of control
same,T/C,[14],100 % of control
CC1(C)SC(C)(c2ccsc2)N(c2nccs2)C1=O (configuration not stated),T/C,"dose: 60.0 mg/kg/injection, schedule: Q01DX005 (ip), vehicle: Klucel (hydroxypropylcellulose) (HPC)",97 % of control
same,T/C,"dose: 120.0 mg/kg/injection, schedule: Q01DX005 (ip), vehicle: Klucel (hydroxypropylcellulose) (HPC)",96 % of control
same,T/C,"dose: 240.0 mg/kg/injection, schedule: Q01DX005 (ip), vehicle: Klucel (hydroxypropylcellulose) (HPC)",94 % of control
CC(/C=N/Nc1ccccc1)=N\N=c1/scc(-c2ccc(C)cc2)n1C1CCCCC1,T/C,[6],94 % of control
same,T/C,[7],96 % of control
same,T/C,[8],89 % of control
O=S(=O)(CI)OCCCl,T/C,[1],102 % of control
same,T/C,[2],110 % of control
C1CCc2nc3c(nc2C1)CCCC3,T/C,[6],101 % of control
same,T/C,[7],101 % of control
same,T/C,[8],92 % of control
NC(=O)CNC(c1ccccc1)c1ccccc1,T/C,"dose: 37.5 mg/kg/injection, schedule: Q01DX009 (ip), vehicle: saline with Tween-80",107 % of control
same,T/C,"dose: 75.0 mg/kg/injection, schedule: Q01DX009 (ip), vehicle: saline with Tween-80",106 % of control
same,T/C,"dose: 150.0 mg/kg/injection, schedule: Q01DX009 (ip), vehicle: saline with Tween-80",100 % of control
O=C1C2C3C=CC(O3)C2C(=O)N1CCN1CCCCC1 (configuration not stated),T/C,"dose: 50.0 mg/kg/injection, schedule: Q01DX005 (ip), vehicle: other",97 % of control
same,T/C,"dose: 100.0 mg/kg/injection, schedule: Q01DX005 (ip), vehicle: other",91 % of control
O=C(CC(=O)CC(O)(C(F)(F)F)C(F)(F)F)CC(O)(C(F)(F)F)C(F)(F)F,T/C,"dose: 1.25 mg/kg/injection, schedule: Q04DX003 (ip), vehicle: saline",100 % of control
same,T/C,"dose: 2.5 mg/kg/injection, schedule: Q04DX003 (ip), vehicle: saline",95 % of control
Cc1[nH]nc2c(Cc3ccccc3)n[nH]c(=O)c12,T/C,[3],102 % of control
same,T/C,[4],104 % of control
same,T/C,[5],112 % of control
O=C1C(CN2CCCC2)C(O)=C(c2ccccc2)N1c1ccccc1 (configuration not stated),T/C,"dose: 100.0 mg/kg/injection, schedule: Q01DX001 (ip), vehicle: saline with Tween-80",102 % of control
same,T/C,"dose: 200.0 mg/kg/injection, schedule: Q01DX001 (ip), vehicle: saline with Tween-80",92 % of control
same,T/C,"dose: 400.0 mg/kg/injection, schedule: Q01DX001 (ip), vehicle: saline with Tween-80",92 % of control
O=c1[nH]c(CN2CCCCC2)ccc1O,T/C,"dose: 25.0 mg/kg/injection, schedule: Q01DX009 (ip), vehicle: saline",105 % of control and 109 % of control
same,T/C,"dose: 50.0 mg/kg/injection, schedule: Q01DX009 (ip), vehicle: saline",99 % of control and 105 % of control
same,T/C,"dose: 100.0 mg/kg/injection, schedule: Q01DX009 (ip), vehicle: saline",106 % of control and 109 % of control
same,T/C,"dose: 200.0 mg/kg/injection, schedule: Q01DX009 (ip), vehicle: saline",117 % of control and 118 % of control
C/C(=N\NC(=S)N(C)C)c1ncc[nH]1,T/C,[6],121 % of control
same,T/C,[7],119 % of control

# Source: PubChem BioAssay AID330 (DTP/NCI, 2004)
